pIC50: −log10 of the molar value. Read-outs that look alike come from different tables or passages of the source. Ends that are not written are not given here.
Assays:
human SIRT1 [1] = target: T1, human SIRT1 (Homo sapiens, UniProt Q96EB6); test: SIRT-Glo luminogenic enzymatic inhibitory assay (inhibition rate and IC50); type: biochemical; conditions: n = 4, read-out: IC50
T1 construct: host or cells: Escherichia coli M15
T1 sequence (Q96EB6 with tags, fused parts or gaps): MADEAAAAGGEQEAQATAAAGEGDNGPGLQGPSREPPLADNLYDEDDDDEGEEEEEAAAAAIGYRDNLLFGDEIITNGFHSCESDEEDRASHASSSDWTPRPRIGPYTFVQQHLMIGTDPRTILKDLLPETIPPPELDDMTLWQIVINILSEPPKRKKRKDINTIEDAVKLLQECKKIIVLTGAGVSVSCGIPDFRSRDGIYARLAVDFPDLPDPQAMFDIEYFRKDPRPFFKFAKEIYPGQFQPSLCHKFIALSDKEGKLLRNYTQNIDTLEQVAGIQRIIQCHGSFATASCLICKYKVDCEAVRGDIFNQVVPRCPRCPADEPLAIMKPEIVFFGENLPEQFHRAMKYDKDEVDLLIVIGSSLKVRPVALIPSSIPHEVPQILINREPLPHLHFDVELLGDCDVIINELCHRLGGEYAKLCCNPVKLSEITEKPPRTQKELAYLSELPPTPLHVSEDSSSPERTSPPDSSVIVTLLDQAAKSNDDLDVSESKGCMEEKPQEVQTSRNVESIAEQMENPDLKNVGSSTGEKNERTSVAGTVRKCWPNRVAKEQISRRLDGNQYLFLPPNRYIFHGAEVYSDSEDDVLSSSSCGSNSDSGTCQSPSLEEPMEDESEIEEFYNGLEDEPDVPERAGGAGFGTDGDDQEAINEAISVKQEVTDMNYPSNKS

human SIRT1 [2] = target: T1, human SIRT1; test: Thermal shift assay (TSA) of Sirtuin 1 without NAD+; type: binding; parameters: TSA(without NAD+) Primary screening (TSA) TmD (K): unit not given here; conditions: for TSA(without NAD+) Primary screening (TSA) TmD (K) / ΔTm at 10 µM: 10 µM, n = 1; for ΔTm at 10 µM: read-out: TSA(without NAD+) Primary screening (TSA) delta Tm (K); for thermal shift in SIRT1 melting curves, separate additions: separate additions of H3K9 (120 µM) or NAD+ (500 µM)
Description: (§1) A total of 3,192 compounds extracted from the proposed lists were first screened by thermal shift assay (TSA), which determined a melting temperature shift (ΔTm) of Sirtuin 1 upon the addition of a test compound at a concentration of 10 µM (n = 1) with primary hit criteria of ΔTm > 0.45 K or ΔTm < −1.5 K. Primary hits (48 compounds) were retested in the same assay at three concentrations (5, 10, 20 µM, n = 4) for hit confirmation and for dose-dependency check. Secondary hits (41 compounds) were checked their selectivity for Sirtuin 1 based on counterscreening on unrelated protein targets (bovine carbonic anhydrase (CA) and recombinant SH2 domain of hABL1 kinase (ABL1)) at three different concentrations (5, 10, 20 µM, n = 4), which yielded 38 hit compounds, hereafter referred to as TSA hits. The TSA screening above was conducted in the absence of NAD^+. As noted, the structure of Sirtuin 1 is different in the presence of NAD^+ and substrate. The chemical profile of TSA hits found from the different conditions could be different. […] As a result, 39 TSA hits were found. Regardless of the presence of NAD^+, 29 compounds were shared in both TSA hits.
B. Setup and validation of Protein Thermal Shift Assay.
All tested compounds were obtained from the screening compound collection of Enamine Ltd.
(Kiev, Ukraine). Stock solutions of the tested compounds were prepared at 10 mM in 100% DMSO and were stored at −20 °C until use. All thermal shift assay (TSA) experiments with SIRT1 protein were performed using ViiA™7 real-time PCR System equipped with 384-well heat block (Applied Biosystems, USA). General TSA methodology was adopted from the literature3-5 and experimentally modified in order to optimize conditions for measuring SIRT1 melting temperature shifts upon interaction with small molecules. To define the optimal buffer composition for the TSA procedure, a matrix of common buffers combined on a 96-well plate (Figure S3) was tested in thermal melt experiment on a 384-well plate (each buffer composition in quadruplicate). In addition, each buffer composition shown on Figure S3 was tested at two different buffering component concentrations, as listed in Table S1, resulting in two 384-well plate buffer screening experiments and the total of 192 different buffer compositions tested.
Figure S3. Matrix plate of the buffer compositions assessed for TSA optimization.
(1 picture or pasted object on this page, not shown here)
(§2) Table S1. Buffer concentrations used for preparing buffer composition matrix screening plates.
(§3) Buffer Plate 1 (mM) Plate 2 (mM)
(§4) Selection of the optimal buffer composition was based on balancing several criteria including undistorted protein melting curve, maximized melting temperature stability of SIRT1 protein and maximized melting temperature shift induced by the acetylated histone H3K9 peptide (KQTARK(Ac)STGG, a natural substrate of SIRT1). Thermal shift experiments were done at 120 µM H3K9 in the presence of 500 µM NAD+, a co-factor of SIRT1. Separate additions of H3K9 or […]
result, the buffer consisting of 20 mM Tris-HCl pH 8 and 50 mM NaCl was selected for the screening. Purified SIRT1 protein was pre-mixed with SYPRO Orange dye (Thermo Fischer Scientific, Cat. S6650, 5000x stock) to prepare a master mix at 400 µg/mL protein and 10x dye concentration. Tested compounds were added to the protein-dye master mix at 10 µM (1% final DMSO concentration) and incubated for 1 h at 4 °C in MicroAmp® optical 384-well reaction plates (ThermoFisher, Cat. 4309849) sealed with optical sealing film (ThermalSeal RT2, Excel Scientific, Cat. TS-RT2). The volumes of all reaction mixtures were 10 µL (4 µg SIRT1 per well). The reaction plates were then kept at ambient temperature (22-24 °C) for additional 15 minutes to ensure protein-compound interactions. Thermal scanning was performed by raising temperature to 35 °C at 1.6 °C/min without signal detection followed by 35 °C to 75 °C temperature ramp at 0.05 °C/s with […]

human SIRT1 [3] = target: T1, human SIRT1; test: Thermal shift assay (TSA) of Sirtuin 1 in the presence of NAD+; type: binding; conditions: for ΔTm at 10 µM: n = 1, read-out: TSA(with NAD+) Primary screening (TSA) delta Tm (K)
Description: as §1, §2, §3, §4
result, the buffer consisting of 20 mM Tris-HCl pH 8 and 50 mM NaCl was selected for the screening. Purified SIRT1 protein was pre-mixed with SYPRO Orange dye (Thermo Fischer Scientific, Cat. S6650, 5000x stock) to prepare a master mix at 400 µg/mL protein and 10x dye concentration. Tested compounds were added to the protein-dye master mix at 10 µM (1% final DMSO concentration) and incubated for 1 h at 4 °C in MicroAmp® optical 384-well reaction plates (ThermoFisher, Cat. 4309849) sealed with optical sealing film (ThermalSeal RT2, Excel Scientific, Cat. TS-RT2). The volumes of all reaction mixtures were 10 µL (4 µg SIRT1 per well). The reaction plates were then kept at ambient temperature (22-24 °C) for additional 15 minutes to ensure protein-compound interactions. Thermal scanning was performed by raising temperature to 35 °C at 1.6 °C/min without signal detection followed by 35 °C to 75 °C temperature ramp at 0.05 °C/s with constant fluorescence intensity reading at 1 sec intervals using EX470/EM623 nm filter set. Primary screening of the whole test set of 3,192 compounds was carried out in singletons. The raw data of dye fluorescence intensity change upon protein melt were exported using the ViiA7 RUO software (Applied Biosystems/ThermoFischer Scientific). Further data visualization, curve fitting, melting temperature calculations on the raw fluorescence data were performed using custom-made Microsoft Excel scripts developed by us. The peak of the first derivative for the fluorescence curve was used to define melting temperature (Tm). Averaged Tm values for the control wells (64 wells per plate), containing only the protein, dye and 1% DMSO were used as a reference point to determine melting temperature shifts (ΔTm). Hit selection criteria was ΔTm > 0.45 °C or ΔTm < −1.5 °C. All primary hits were re-tested in the same assay at 3 concentrations (20, 10 and 5 µM, n = 4) for hit confirmation

[4] = tested on: bovine carbonic anhydrase (CA); test: TSA counterscreening on unrelated protein, carbonic anhydrase; type: binding; conditions: combined verdict on CA and Abl SH2; TSA flow with NAD+
Description: as §1

[5] = final Sirtuin 1 concentration 20 nM

Compound	pIC50 (human SIRT1 [1]; [5])	ΔTm at 10 µM (human SIRT1 [3]) [°C]	TSA(without NAD+) Primary screening (TSA) TmD (K) (human SIRT1 [2])	ΔTm at 10 µM (human SIRT1 [2]) [°C]	further results
O=C1NC(=O)c2ccccc2/C1=C\NNC(=O)C12CC3CC(CC(C3)C1)C2 [Compound Z165047618]	–	–	–	–	pIC50 (human SIRT1 [1]; final Sirtuin 1 concentration 30 nM (compounds marked *)): 4.89; ΔTm, additional TSA experiment (human SIRT1 [2]; without NAD+, n = 4): −0.03 K
Cc1nc(-c2ccc(CCNC(=O)c3ccc(NC(=O)c4cccs4)cc3)s2)cs1 [Compound Z165049452]	4.92	–	–	–	–
NCc1nc2c(cnn2-c2ccccc2)c(=O)[nH]1 [Compound Z235344735]	5.12	–	–	–	–
Cc1ccc(C(=O)Nc2nc3ccc(NS(=O)(=O)c4ccc5c(c4)CCC(=O)N5)cc3s2)s1 [Compound Z605844126]	4.82	–	–	–	–
Cc1ccc(C(CNC(=O)c2ccc(C(N)=O)cc2)N2CCCC2)o1 (stereo not drawn) [Compound Z1001367730]	–	-0.11	49.64	-0.08	–
NC(=O)c1ccc[n+]([C@@H]2O[C@H](COP(=O)([O-])OP(=O)(O)OC[C@H]3O[C@@H](n4cnc5c(N)ncnc54)[C@H](O)[C@@H]3O)[C@@H](O)[C@H]2O)c1 [NAD+, nicotinamide adenine dinucleotide]	–	–	–	–	thermal shift in SIRT1 melting curves, separate additions (human SIRT1 [2]): did not cause any thermal shift
histone H3K9 peptide: acetylated histone H3K9 peptide (KQTARK(Ac)STGG, a natural substrate of SIRT1) (UniProt P68431 5-14, looked up, fragment) [reference compound]	–	–	–	–	Peptide induced thermal shift (human SIRT1 [3]; 120 µM H3K9 in the presence of 500 µM NAD+): +1.2 °C; thermal shift in SIRT1 melting curves, separate additions (human SIRT1 [2]): did not cause any thermal shift

Further lines, with some results ahead:

pIC50 (human SIRT1 [1]; [5])	ΔTm at 10 µM (human SIRT1 [3]) [°C]	TSA(without NAD+) Primary screening (TSA) TmD (K) (human SIRT1 [2])	ΔTm at 10 µM (human SIRT1 [2]) [°C]	Compound	further results
–	0.09	49.54	-0.05	CC(Nc1ccc2nnnn2n1)c1ccc(Oc2ccccc2)cc1 (stereo not drawn) [Compound Z1002316132]	–
–	0.68	49.54	-0.07	O=c1[nH]c2ccc(S(=O)(=O)NCc3cc4ccccc4[nH]3)cc2[nH]1 [Compound Z1003449802]	TSA(with NAD+) Counter Screening (Carbonic anhydrase AND Abl kinase SH2 domain) Good/Bad [4]: Bad
